# According to article PMC11239830, “Synthetic macrolides overcoming MLSBK-resistant pathogens” (Cell Discovery, 2024):
# Read-outs that look alike come from different tables or passages of the source.
# Columns and labels:
# S. pneumoniae = experiment: MIC, broth microdilution; assay type: cell-based, Streptococcus pneumoniae
# Method in brief: (§1)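 Read-out is the lowest concentration without observed growth after 16–20 h at 37 °C, using the CLSI broth microdilution method.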
# [1] = system: 15B196 S. aureus ribosomes (A2058-methylated); experiment: PURE in vitro translation inhibition assay; assay type: biochemical, Staphylococcus aureus; conditions: mean ± SD
# Description: (§2) To validate the in vitro activity of our compounds, we employed an in vitro reconstituted E. coli Protein synthesis Using a Recombinant Elements (PURE) translation system, substituting E. coli ribosomes with the purified S. aureus ribosomes.
# (§3) 5 μL of PURE reaction mix that translates a gene encoding the Nanoluc luciferase was set up in the presence or absence of tested compounds. Protein synthesis was initiated by incubating reactions at 37 °C for 60 min and stopped by placing on ice for 5 min. Luciferase activity was quantified using the Nano-Glo luciferase assay system and read on a GloMax 20/20 luminometer (Promega, USA). For each compound, the in vitro translation inhibition assay was performed in three biological triplicates over a range of concentrations from 0.001 μM to 1000 μM. A compound-free control was used to normalize luminescence measurements. The calculated luminescence percentages were plotted against compound concentrations on a semilog scale using GraphPad Prism.
# WT S. aureus ribosomes = experiment: PURE in vitro translation inhibition assay; assay type: biochemical, Staphylococcus aureus; conditions: mean ± SD
# Description: as §2, §3
# [2] = CCK-8 assay for cytotoxicity; assay type: cell-based, human; conditions: human, HEK293T cells, HEK293T cell viability
# Description: HepG2 cells (6 × 10^3) and HEK293T cells (4 × 10^3) were seeded into 96-well plates in 90 μL of DMEM medium containing 10% FBS per well. […] After overnight incubation, the test compound stock solution was diluted with DMEM medium containing 10% FBS to every target concentration, and 10 μL of each was added to each well. Three parallel experiments were set up for each compound. After incubation for 48 h, 10 μL of cell counting kit-8 (CCK-8) reagent was added to each well in sequence according to the manufacturer’s instructions. […] This experiment was independently repeated three times. The data were processed by GraphPad Prism.
# S. pyogenes = experiment: MIC, broth microdilution; assay type: cell-based, Streptococcus pyogenes
# Method in brief: as §1
# S. aureus = experiment: MIC, broth microdilution; assay type: cell-based, Staphylococcus aureus
# Method in brief: as §1
# M. catarrhalis = experiment: MIC, broth microdilution; assay type: cell-based, Moraxella catarrhalis; conditions: Moraxella catarrhalis; M. catarrhalis 13L332, Ery-S; read-out: MIC
# Description: MICs were determined by the microdilution method according to the Clinical and Laboratory Standards Institute guidelines. Briefly, the stock solution of compounds and the reference antibiotics were diluted 2-fold in sterile 96-well plates with cation-adjusted Mueller-Hinton broth, and mixed with CAMHB-containing bacteria to give a final inoculum of 5 × 10^5 CFU/mL for broth microdilution experiments. […] Finally, the 96-well plates were incubated at 37 °C for 16–20 h to observe and record the results. The lowest concentration at which no bacterial growth could be observed visually was identified as the MICs of the compounds. The assay for MICs was replicated at least three times.
# [3] = Staphylococcus aureus, All S. aureus (24)
# [4] = Staphylococcus aureus, i-MLSB S. aureus (10)
compound,measurement,setting,value
"CC[C@H]1OC(=O)[C@H](C)C(=O)[C@H](C)[C@@H](O[C@@H]2O[C@H](C)C[C@H](N(C)C)[C@H]2O)[C@](C)(OC)C[C@@H](C)C(=O)[C@H](C)[C@H]2N(CCCCn3cnc(-c4cccnc4)c3)C(=O)O[C@]12C [telithromycin, reference compound]",MIC,"S. pneumoniae; S. pneumoniae 21C315, Clinical, c-ermB",0.12 µg/mL
same,MIC,"S. pneumoniae; S. pneumoniae 21D016, Clinical, c-ermB, mef",0.25 µg/mL
same,MIC,"S. pneumoniae; S. pneumoniae 21D020, Clinical, c-ermB, mef",0.25 µg/mL
same,MIC,"S. pneumoniae; S. pneumoniae 21M277, Clinical, c-ermB",0.12 µg/mL
same,MIC,"S. pneumoniae; S. pneumoniae 21Q352, Clinical, i-MLSB",0.06 µg/mL
same,MIC,"S. pneumoniae; S. pneumoniae 21Q353, Clinical, i-MLSB",0.03 µg/mL
same,MIC,"S. pneumoniae; S. pneumoniae 21W257, Clinical, c-ermB, mef",0.12 µg/mL
same,MIC,"S. pneumoniae; S. pneumoniae 21X435, Clinical",0.016 µg/mL
same,MIC,S. pneumoniae; S. pneumoniae ATCC49619,0.008 µg/mL
same,MIC,"S. pneumoniae; S. pneumoniae PU09, mef",1 µg/mL
same,MIC,"S. pneumoniae; Streptococcus pneumoniae, S. pneumoniae 05O173, c-ermB, mef, read-out: MIC",4 µg/mL
same,MIC,"S. pneumoniae; Streptococcus pneumoniae, S. pneumoniae PU09, mef, read-out: MIC",0.5 µg/mL
same,IC50,[1],> 10 µM
same,IC50,WT S. aureus ribosomes,0.38 ± 0.13 µM
same,CC50 at 48 h,[2],> 100 µM
same,MIC,"S. pyogenes; S. pyogenes 01-968, Clinical, i-ermB",0.016 µg/mL
same,MIC,"S. pyogenes; S. pyogenes 12-207, Clinical, mef",0.5 µg/mL
same,MIC,"S. pyogenes; S. pyogenes 21C303, Clinical, c-ermB",16 µg/mL
same,MIC,"S. pyogenes; S. pyogenes 21D184, Clinical, c-ermB",8 µg/mL
same,MIC,"S. pyogenes; S. pyogenes 21D199, Clinical, c-ermB",8 µg/mL
same,MIC,"S. pyogenes; S. pyogenes 21D200, Clinical, c-ermB",16 µg/mL
same,MIC,"S. pyogenes; S. pyogenes 21K003, Clinical, mef",1 µg/mL
same,MIC,"S. pyogenes; S. pyogenes 21M063, Clinical, c-ermB",16 µg/mL
same,MIC,"S. pyogenes; S. pyogenes 21W186, Clinical, c-ermTR",8 µg/mL
same,MIC,"S. aureus; S. aureus 15B196, Clinical, MRSA, c-ermB",128 µg/mL
same,MIC,"S. aureus; S. aureus 15B196, c-ermB",32 µg/mL
same,MIC,"S. aureus; S. aureus 21B200, Clinical, MRSA, c-ermB",> 256 µg/mL
same,MIC,"S. aureus; S. aureus 21B207, Clinical, MRSA, c-ermB",> 256 µg/mL
same,MIC,"S. aureus; S. aureus 21B212, Clinical, MSSA, i-ermC",0.25 µg/mL
same,MIC,"S. aureus; S. aureus 21C173, Clinical, MSSA, i-ermC",0.25 µg/mL
same,MIC,"S. aureus; S. aureus 21C174, Clinical, MSSA, c-ermB",> 256 µg/mL
same,MIC,"S. aureus; S. aureus 21C187, Clinical, MRSA, i-ermA",0.12 µg/mL
same,MIC,"S. aureus; S. aureus 21D112, Clinical, MSSA, c-ermB",> 256 µg/mL
same,MIC,"S. aureus; S. aureus 21D115, Clinical, MSSA, i-ermC",0.12 µg/mL
same,MIC,"S. aureus; S. aureus 21F198, Clinical, MRSA, c-ermB",> 256 µg/mL
same,MIC,"S. aureus; S. aureus 21F206, Clinical, MSSA, c-ermB",> 256 µg/mL
same,MIC,"S. aureus; S. aureus 21F207, Clinical, MRSA, i-ermC",0.25 µg/mL
same,MIC,"S. aureus; S. aureus 21K194, Clinical, MSSA, i-ermC",0.25 µg/mL
same,MIC,"S. aureus; S. aureus 21N354, Clinical, MRSA, c-ermB",128 µg/mL
same,MIC,"S. aureus; S. aureus 21P191, Clinical, MSSA, c-ermC",> 256 µg/mL
same,MIC,"S. aureus; S. aureus 21P404, Clinical, MSSA, i-ermC",0.5 µg/mL
same,MIC,"S. aureus; S. aureus 21P407, Clinical, MRSA, c-ermB",> 256 µg/mL
same,MIC,"S. aureus; S. aureus 21Q253, Clinical, MRSA, c-ermB",16 µg/mL
same,MIC,"S. aureus; S. aureus 21R216, Clinical, MSSA, c-ermC",> 256 µg/mL
same,MIC,"S. aureus; S. aureus 21T141, Clinical, MRSA, c-ermB",> 256 µg/mL
same,MIC,"S. aureus; S. aureus 21X388, Clinical, i-ermA (MRSA in Table S9, MSSA in Fig. 2a)",0.25 µg/mL
same,MIC,"S. aureus; S. aureus 21Y223, Clinical, MRSA, i-ermC",0.25 µg/mL
same,MIC,S. aureus; S. aureus ATCC29213,0.25 µg/mL
same,MIC,"S. aureus; S. aureus PU32, Clinical, MRSA, i-ermA",0.12 µg/mL
same,MIC50,S. aureus; [3],16 µg/mL
same,MIC90,S. aureus; [3],> 256 µg/mL
same,MIC50,"S. aureus; Staphylococcus aureus, MRSA, MRSA (13)",128 µg/mL
same,MIC50,"S. aureus; Staphylococcus aureus, MSSA, MSSA (10)",0.5 µg/mL
same,MIC,"S. aureus; Staphylococcus aureus, S. aureus 15B196, c-ermB, read-out: MIC",64 µg/mL
same,MIC50,"S. aureus; Staphylococcus aureus, c-MLSB (constitutive) S. aureus (13)",> 256 µg/mL
same,MIC50,S. aureus; [4],0.25 µg/mL
same,MIC90,S. aureus; [4],0.25 µg/mL
same,MIC90,"S. aureus; Staphylococcus aureus, MRSA (13)",> 256 µg/mL
same,MIC90,"S. aureus; Staphylococcus aureus, MSSA (10)",> 256 µg/mL
same,MIC,M. catarrhalis,0.25 µg/mL
